From patent US20230391739A1, “ARYL DERIVATIVES FOR TREATING TRPM3 MEDIATED DISORDERS” (Katholieke Universiteit Leuven, priority 2020, published 2023)

Biological target: T1, mouse TRPM3α2 (mTRPM3) ion channel (Mus musculus, UniProt J9SQF3)
T1 construct: expressed in transfected cells; host or cells: flip-in HEK293
Assay: TRPM3 ion channel driven Ca2+ uptake, Fluo-4 AM assay, PS-stimulated (mTRPM3)
Assay type: cell-based
Settings: TRPM3 overexpressing flip-in HEK293 cells stimulated with Pregnenolone sulfate (PS) 50 μM, activity ranges A, B, C
In short: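 Flp-In HEK293 cells overexpressing mTRPM3α2 were added, in Ca²⁺-free Krebs, to wells already holding compound and 50 μM pregnenolone sulfate in Ca²⁺-containing Krebs. Fluo-4 AM fluorescence (ex 485/em 535 nm) was read immediately. Percent inhibition was computed from RFU relative to PS/vehicle wells and a positive-control inhibitor.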

T1 sequence (J9SQF3 1-1709 isoform J9SQF3-12): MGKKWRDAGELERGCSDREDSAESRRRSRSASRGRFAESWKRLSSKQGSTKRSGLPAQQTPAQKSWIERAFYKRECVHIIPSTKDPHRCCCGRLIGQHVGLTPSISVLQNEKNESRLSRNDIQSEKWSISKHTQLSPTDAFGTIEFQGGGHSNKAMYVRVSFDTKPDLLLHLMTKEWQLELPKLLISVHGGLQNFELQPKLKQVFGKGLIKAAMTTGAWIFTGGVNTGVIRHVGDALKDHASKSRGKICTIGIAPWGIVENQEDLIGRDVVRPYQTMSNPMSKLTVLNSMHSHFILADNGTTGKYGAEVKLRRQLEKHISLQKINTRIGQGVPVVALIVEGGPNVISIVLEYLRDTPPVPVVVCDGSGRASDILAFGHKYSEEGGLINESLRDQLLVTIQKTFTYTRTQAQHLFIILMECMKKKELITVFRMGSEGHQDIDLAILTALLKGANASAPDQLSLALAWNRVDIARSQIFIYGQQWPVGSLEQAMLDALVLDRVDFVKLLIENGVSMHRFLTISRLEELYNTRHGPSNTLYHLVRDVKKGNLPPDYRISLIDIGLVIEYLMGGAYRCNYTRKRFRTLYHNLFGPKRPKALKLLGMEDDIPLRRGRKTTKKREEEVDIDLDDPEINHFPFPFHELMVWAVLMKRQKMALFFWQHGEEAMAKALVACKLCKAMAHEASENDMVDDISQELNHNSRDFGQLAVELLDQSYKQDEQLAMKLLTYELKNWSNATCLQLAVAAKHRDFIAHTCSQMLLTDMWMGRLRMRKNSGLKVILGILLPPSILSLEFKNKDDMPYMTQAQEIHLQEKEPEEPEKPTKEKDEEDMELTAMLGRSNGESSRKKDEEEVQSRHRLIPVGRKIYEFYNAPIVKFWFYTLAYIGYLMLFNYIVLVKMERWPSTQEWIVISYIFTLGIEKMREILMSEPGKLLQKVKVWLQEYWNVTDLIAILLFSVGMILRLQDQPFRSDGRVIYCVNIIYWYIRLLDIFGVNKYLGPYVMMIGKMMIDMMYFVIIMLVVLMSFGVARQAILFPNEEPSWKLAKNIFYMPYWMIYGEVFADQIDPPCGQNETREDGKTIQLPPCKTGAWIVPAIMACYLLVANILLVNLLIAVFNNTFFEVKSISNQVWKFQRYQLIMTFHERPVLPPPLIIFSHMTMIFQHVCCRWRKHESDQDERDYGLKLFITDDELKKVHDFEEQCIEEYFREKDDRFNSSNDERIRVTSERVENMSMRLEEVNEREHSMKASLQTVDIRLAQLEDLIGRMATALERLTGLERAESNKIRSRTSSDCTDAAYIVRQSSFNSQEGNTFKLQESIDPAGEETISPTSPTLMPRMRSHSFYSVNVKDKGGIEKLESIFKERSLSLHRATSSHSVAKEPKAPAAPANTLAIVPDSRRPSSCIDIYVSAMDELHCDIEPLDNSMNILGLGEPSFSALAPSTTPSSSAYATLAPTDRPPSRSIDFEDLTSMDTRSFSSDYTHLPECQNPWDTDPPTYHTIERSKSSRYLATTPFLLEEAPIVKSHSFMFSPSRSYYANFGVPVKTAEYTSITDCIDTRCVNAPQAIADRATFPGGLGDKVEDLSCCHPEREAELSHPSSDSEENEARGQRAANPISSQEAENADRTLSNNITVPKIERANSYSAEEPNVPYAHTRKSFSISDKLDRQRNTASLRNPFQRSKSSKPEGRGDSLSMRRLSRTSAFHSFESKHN

SMILES	IC50 [µM]
Cc1oc2ccc(COc3ccccc3F)cc2c1C(=O)NC(C)(C)CO [Cpd 319, 5-((2-fluorophenoxy)methyl)-N-(1-hydroxy-2-methylpropan-2-yl)-2-methylbenzofuran-3-carboxamide]	1 to 20
Cc1oc2ccc(OCc3ccccc3F)cc2c1C(=O)NC1(C(N)=O)CCC1 [Cpd 322, N-(1-carbamoylcyclobutyl)-5-((2-fluorobenzyl)oxy)-2-methylbenzofuran-3-carboxamide]	< 1
Cc1oc2ccc(OCc3ccccc3F)cc2c1C(=O)NC1(CO)CCC1 [Cpd 324, 5-((2-fluorobenzyl)oxy)-N-(1-(hydroxymethyl)cyclobutyl)-2-methylbenzofuran-3-carboxamide]	< 1
Cc1oc2ccc(OCc3ccccc3F)cc2c1C(=O)NC1(CO)CC1 [Cpd 325, 5-((2-fluorobenzyl)oxy)-N-(1-(hydroxymethyl)cyclopropyl)-2-methylbenzofuran-3-carboxamide]	< 1
Cc1oc2ccc(OCc3ccccc3F)cc2c1C(=O)NC1(C(N)=O)CC1 [Cpd 326, N-(1-carbamoylcyclopropyl)-5-((2-fluorobenzyl)oxy)-2-methylbenzofuran-3-carboxamide]	< 1

More lines, now with the values ahead:

IC50 [µM]	SMILES
1 to 20	Cc1oc2ccc(OCc3ccccc3S(C)(=O)=O)cc2c1C(=O)NC1(CO)CCOCC1 [Cpd 332, N-(4-(hydroxymethyl)tetrahydro-2H-pyran-4-yl)-2-methyl-5-((2-(methylsulfonyl)benzyl)oxy)benzofuran-3-carboxamide]
< 1	Cc1oc2ccc(OCc3ccccc3)cc2c1C(=O)N[C@@H](CO)C(N)=O [Cpd 337, (S)—N-(1-amino-3-hydroxy-1-oxopropan-2-yl)-5-(benzyloxy)-2-methylbenzofuran-3-carboxamide]
< 1	Cc1oc2ccc(OCc3ccccc3Cl)cc2c1C(=O)N[C@@H](CO)C(N)=O [Cpd 338, (S)—N-(1-Amino-3-hydroxy-1-oxopropan-2-yl)-5-((2-chlorobenzyl)oxy)-2-methylbenzofuran-3-carboxamide]
< 1	COc1ccccc1COc1ccc2oc(C)c(C(=O)N[C@@H](CO)C(N)=O)c2c1 [Cpd 339, (S)—N-(1-Amino-3-hydroxy-1-oxopropan-2-yl)-5-((2-methoxybenzyl)oxy)-2-methylbenzofuran-3-carboxamide]
< 1	Cc1oc2ccc(OCc3ccc(F)cc3F)cc2c1C(=O)N[C@@H](CO)C(N)=O [Cpd 340, (S)—N-(1-amino-3-hydroxy-1-oxopropan-2-yl)-5-((2,4-difluorobenzyl)oxy)-2-methylbenzofuran-3-carboxamide]
< 1	Cc1ccc(COc2ccc3oc(C)c(C(=O)N[C@@H](CO)C(N)=O)c3c2)c(F)c1 [Cpd 342, (S)—N-(1-amino-3-hydroxy-1-oxopropan-2-yl)-5-((2-fluoro-4-methylbenzyl)oxy)-2-methylbenzofuran-3-carboxamide]
